According to the supplement of paper PMC10307832:

Key:
Test in all cases: relative viability (nuclei count vs DMSO), 5 days (fraction); higher = more cells survive
[1] = test system: HCC-44
Procedure, shortened: (§1)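 Medians of duplicate plates are given as relative viability. That measure is the nuclei count in treated wells divided by the count in vehicle wells. Counts were taken on 4× images of lung cancer cell lines in 1536-well plates, 5 days after pin-tool dosing the day after seeding with one drug alone or a fixed anchor-drug dose plus five library-drug doses (not always all listed) in √10 steps.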

[2] = test system: LCLC-97TM1
Procedure, shortened: as §1

[3] = test system: LCLC-103H
Procedure, shortened: as §1

[4] = test system: NCI-H3122
Procedure, shortened: as §1

[5] = test system: NCI-H727
Procedure, shortened: as §1

[6] = test system: NCI-H647
Procedure, shortened: as §1

[7] = test system: RERF-LC-KJ
Procedure, shortened: as §1

[8] = test system: CAL-12T
Procedure, shortened: as §1

[9] = test system: NCI-H1650
Procedure, shortened: as §1

[10] = test system: SK-LU-1
Procedure, shortened: as §1

[11] = test system: NCI-H2228
Procedure, shortened: as §1

[12] = test system: NCI-H2405
Procedure, shortened: as §1

[13] = test system: BEN
Procedure, shortened: as §1

[14] = test system: NCI-H1437
Procedure, shortened: as §1

[15] = test system: NCI-H2087
Procedure, shortened: as §1

[16] = test system: NCI-H1944
Procedure, shortened: as §1

[17] = test system: 201T
Procedure, shortened: as §1

[18] = test system: NCI-H1793
Procedure, shortened: as §1

[19] = test system: NCI-H1395
Procedure, shortened: as §1

[20] = test system: HOP-62
Procedure, shortened: as §1

[21] = test system: HCC-827
Procedure, shortened: as §1

[22] = test system: LXF-289
Procedure, shortened: as §1

[23] = test system: NCI-H322M
Procedure, shortened: as §1

CC1(C)CCC(c2ccc(Cl)cc2)=C(CN2CCN(c3ccc(C(=O)NS(=O)(=O)c4ccc(N[C@H](CCN5CCOCC5)CSc5ccccc5)c(S(=O)(=O)C(F)(F)F)c4)cc3)CC2)C1 [Navitoclax] + COc1cccc2cc(-c3nc([C@H]4CC[C@H](C(=O)O)CC4)n4ncnc(N)c34)[nH]c12 [OSI-027] (partner 0.5 µM)
relative viability ([1]; first compound 0.05 µM): 0.627 | relative viability ([1]; first compound 0.5 µM): 0.404 | relative viability ([2]; first compound 0.005 µM): 0.608 | relative viability ([2]; first compound 0.01581 µM): 0.484 | relative viability ([2]; first compound 0.05 µM): 0.569 | relative viability ([2]; first compound 0.1581 µM): 0.482 | relative viability ([2]; first compound 0.5 µM): 0.601 | relative viability ([3]; first compound 0.005 µM): 0.462 | relative viability ([3]; first compound 0.01581 µM): 0.449 | relative viability ([3]; first compound 0.05 µM): 0.399 | relative viability ([3]; first compound 0.1581 µM): 0.479 | relative viability ([3]; first compound 0.5 µM): 0.533 | relative viability ([4]; first compound 0.005 µM): 0.98 | relative viability ([4]; first compound 0.01581 µM): 0.949 | relative viability ([4]; first compound 0.05 µM): 1.04 | relative viability ([4]; first compound 0.1581 µM): 0.902 | relative viability ([4]; first compound 0.5 µM): 0.978 | relative viability ([5]; first compound 0.005 µM): 0.675 | relative viability ([5]; first compound 0.01581 µM): 0.692 | relative viability ([5]; first compound 0.1581 µM): 0.663 | relative viability ([5]; first compound 0.5 µM): 0.728 | relative viability ([6]; first compound 0.005 µM): 0.674 | relative viability ([6]; first compound 0.01581 µM): 0.738 | relative viability ([6]; first compound 0.05 µM): 0.891 | relative viability ([6]; first compound 0.1581 µM): 0.611 | relative viability ([6]; first compound 0.5 µM): 0.597 | relative viability ([7]; first compound 0.005 µM): 0.568 | relative viability ([7]; first compound 0.01581 µM): 0.633 | relative viability ([7]; first compound 0.05 µM): 0.498 | relative viability ([7]; first compound 0.1581 µM): 0.599 | relative viability ([7]; first compound 0.5 µM): 0.616 | relative viability ([8]; first compound 0.005 µM): 0.649 | relative viability ([8]; first compound 0.01581 µM): 0.676 | relative viability ([8]; first compound 0.05 µM): 0.557 | relative viability ([8]; first compound 0.1581 µM): 0.677 | relative viability ([8]; first compound 0.5 µM): 0.629 | relative viability ([9]; first compound 0.005 µM): 0.601 | relative viability ([9]; first compound 0.01581 µM): 1 | relative viability ([9]; first compound 0.05 µM): 0.698 | relative viability ([9]; first compound 0.1581 µM): 0.526 | relative viability ([9]; first compound 0.5 µM): 0.445 | relative viability ([10]; first compound 0.005 µM): 0.374 | relative viability ([10]; first compound 0.01581 µM): 0.429 | relative viability ([10]; first compound 0.05 µM): 0.347 | relative viability ([10]; first compound 0.1581 µM): 0.374 | relative viability ([10]; first compound 0.5 µM): 0.319 | relative viability ([11]; first compound 0.005 µM): 0.586 | relative viability ([11]; first compound 0.01581 µM): 0.726 | relative viability ([11]; first compound 0.1581 µM): 0.53 | relative viability ([11]; first compound 0.5 µM): 0.5 | relative viability ([12]; first compound 0.005 µM): 0.664 | relative viability ([12]; first compound 0.01581 µM): 0.682 | relative viability ([12]; first compound 0.05 µM): 0.644 | relative viability ([12]; first compound 0.1581 µM): 0.632 | relative viability ([12]; first compound 0.5 µM): 0.558 | relative viability ([13]; first compound 0.005 µM): 0.286 | relative viability ([13]; first compound 0.01581 µM): 0.308 | relative viability ([13]; first compound 0.05 µM): 0.333 | relative viability ([13]; first compound 0.1581 µM): 0.308 | relative viability ([13]; first compound 0.5 µM): 0.281 | relative viability ([14]; first compound 0.005 µM): 0.845 | relative viability ([14]; first compound 0.01581 µM): 0.974 | relative viability ([14]; first compound 0.05 µM): 0.932 | relative viability ([14]; first compound 0.1581 µM): 0.856 | relative viability ([14]; first compound 0.5 µM): 0.83 | relative viability ([15]; first compound 0.005 µM): 0.47 | relative viability ([15]; first compound 0.01581 µM): 0.679 | relative viability ([15]; first compound 0.1581 µM): 0.537 | relative viability ([15]; first compound 0.5 µM): 0.794 | relative viability ([16]; first compound 0.005 µM): 0.401 | relative viability ([16]; first compound 0.01581 µM): 0.495 | relative viability ([16]; first compound 0.05 µM): 0.364 | relative viability ([16]; first compound 0.1581 µM): 0.376 | relative viability ([16]; first compound 0.5 µM): 0.419 | relative viability ([17]; first compound 0.005 µM): 0.73 | relative viability ([17]; first compound 0.01581 µM): 0.805 | relative viability ([17]; first compound 0.05 µM): 0.392 | relative viability ([17]; first compound 0.1581 µM): 0.707 | relative viability ([17]; first compound 0.5 µM): 0.647 | relative viability ([18]; first compound 0.005 µM): 0.267 | relative viability ([18]; first compound 0.01581 µM): 0.414 | relative viability ([18]; first compound 0.1581 µM): 0.273 | relative viability ([18]; first compound 0.5 µM): 0.261 | relative viability ([19]; first compound 0.005 µM): 0.591 | relative viability ([19]; first compound 0.01581 µM): 0.77 | relative viability ([19]; first compound 0.05 µM): 0.601 | relative viability ([19]; first compound 0.1581 µM): 0.569 | relative viability ([19]; first compound 0.5 µM): 0.754 | relative viability ([20]; first compound 0.005 µM): 0.734 | relative viability ([20]; first compound 0.01581 µM): 0.971 | relative viability ([20]; first compound 0.05 µM): 0.863 | relative viability ([20]; first compound 0.1581 µM): 0.648 | relative viability ([20]; first compound 0.5 µM): 0.894 | relative viability ([21]; first compound 0.005 µM): 0.767 | relative viability ([21]; first compound 0.01581 µM): 0.951 | relative viability ([21]; first compound 0.05 µM): 0.74 | relative viability ([21]; first compound 0.1581 µM): 0.761 | relative viability ([21]; first compound 0.5 µM): 0.812 | relative viability ([22]; first compound 0.005 µM): 0.77 | relative viability ([22]; first compound 0.01581 µM): 0.867 | relative viability ([22]; first compound 0.05 µM): 0.731 | relative viability ([22]; first compound 0.1581 µM): 0.753 | relative viability ([22]; first compound 0.5 µM): 0.795 | relative viability ([23]; first compound 0.005 µM): 0.536 | relative viability ([23]; first compound 0.01581 µM): 0.696 | relative viability ([23]; first compound 0.05 µM): 0.552 | relative viability ([23]; first compound 0.1581 µM): 0.545 | relative viability ([23]; first compound 0.5 µM): 0.706
